Legend:
PEO1 cells = assay: MTS cytotoxicity assay, sensitization to olaparib, PEO1; format: cell-based; conditions: 30 μM, olaparib 72 hr
Description: Cells were pre-treated with 30 μM DB4 for 1 hr and then treated with various concentrations of olaparib for 72 hr. Cell survival was determined by MTS cytotoxicity assay. Data are means±SD (N=3-4). […] EOB calculation was used to quantify the synergy of the combination of DB4 and various concentrations of olaparib in PEO1 or PEO4 cells as shown in FIG. 8A. EOB>0, synergism; EOB=0, additivity; EOB<0, antagonism. […] Cells were pre-treated with 30 μM DB4-F for 1 hr and then treated with various concentrations of olaparib for 72 hr. Cell survival was determined by MTS cytotoxicity assay. Data are means±SD (N=3-4). […] EOB calculation was used to quantify the synergy of the combination of DB4-F and various concentrations of olaparib in PEO1 or PEO4 cells as shown in FIG. 8B. EOB>0, synergism; EOB=0, additivity; EOB<0, antagonism. […] Cell survival was determined by MTS cytotoxicity assay. […] Caspase 3/7 activity was expressed as RLU per μg/μl protein. […] Caspase 3/7 activity was expressed as RLU per μg/μl protein. […] Cells were treated and caspase 3/7 activity was measured as described in FIG. 8G and FIG. 8H.
It was also examined whether DB4 sensitized BRCA-wild type EOC cells to a PARP inhibitor. BRCA2-mutated PEO1 and BRCA2-wild type PEO4 cells were treated with DB4 at 30 μM in combination with various concentrations of olaparib and cell survival was determined. […]

DNA synthesis = conditions: cited from earlier work

Row | SMILES | sensitization to olaparib (cell survival) (PEO1 cells) | time to halt DNA synthesis (DNA synthesis) [h]
1 | C=CCn1c(SCc2cccc(Cl)c2)nnc1C1CCN(Cc2nc3ccccc3s2)CC1 [DB4, 2-[(4-{4-allyl-5-[(3-chlorobenzyl)thio]-4H-1,2,4-triazol-3-yl}-1-piperidinyl)methyl]-1,3-benzothiazole] | minimal effects | –
2 | NC(=S)NN=Cc1ncccc1N [triapine, 3-aminopyridine-2-carboxaldehyde-thiosemicarbazone, reference compound] | – | ≤ 1

Source: patent US20240239786A1, “COMPOSITIONS AND METHODS FOR THE TREATMENT AND PREVENTION OF CANCER” (Yale University, priority 2021, published 2024)
